Like-named read-outs stand apart in the source and are kept apart here.
What was measured:
5-HT2C = 5-HT2C (Homo sapiens (Human), UniProt P28335); experiment: 5-HT2C [125I]DOI binding; conditions: read-out: 5-HT2C [125I]DOI Ki ± SEM
5-HT1A [1] = target: T1, 5-HT1A (Homo sapiens (Human), UniProt P08908); experiment: 5-HT1A [3H]-8-OH-DPAT binding; conditions: read-out: 5-HT1A [3H]-8-OH-DPAT Ki ± SEM
5-HT1A [2] = target: T1, 5-HT1A; experiment: 5-HT1A [35S]GTPγS binding functional assay; format: biochemical
in vivo = experiment: in vivo; set-up: species or system rat; conditions: rat, in vivo, po, 10 mg/kg
Protocol: Male Long-Evans rats with body weights ˜250 grams (Charles River Laboratories, Raleigh, N.C., USA) were used in this study. […] Food and water were available ad libitum throughout the experiments. All experimental procedures were conducted in accordance with the Guide for the Care and Use of Laboratory Animals and were approved by the Animal Care and Use Committee of the National Institute on Drug Abuse of the U.S. National Institutes of Health.
Experimental (oral gavage) procedures: The animals were gently restrained (grasp the animal by the loose skin of the neck and back) to immobilize the head but not such that the animals vocalize or show other signs of distress. Maintained the animal in an upright (vertical) position and passed the gavage needle (19-gauge) along the side of the mouth. Following the roof of the mouth, advanced the needle into the esophagus and toward the stomach. After the needle was passed to the correct length, the compound was injected. Then, the animals were deeply anesthetized with 100 mg/kg pentobarbital (i.p.), and then blood (˜1 ml) was obtained via cardiac puncture and brain was dissected at different time points (15 min, 30 min, 60 min, 2 h, 4 h, and 8 h, n=3 rats per time point) after oral drug administration.
These solutions were stored at −20° C. Losartan (IS) was dissolved in DMSO at 10 mM concentration that was further diluted in acetonitrile to obtain a final concentration of 500 nM and the solutions were stored at −20° C.
Standard Curve and Quality Control (QC) Sample Preparation: Standard curve plasma samples were prepared using naïve rat plasma, by serial dilution of the stock solution, with 8 standards and 4 QCs, ranging from 10-50,000 pmol/mL.
Standard curve brain samples were prepared using naïve rat brain. The tissue was homogenized in acetonitrile (Dilution Factor; DF=3), crushed, and centrifuged at 10,000 rpm for 10 minutes. The resulting supernatant was used as the standard curve matrix. The standard curve was subsequently prepared by serial dilution of the stock solution, with 7 standards and 4 QCs, ranging from 30-50000 pmol/mL.
Extraction Procedure: Test compounds were extracted from plasma samples by protein precipitation using acetonitrile. Compounds were extracted from brain samples by placing weighed tissue into 2 times w/v of acetonitrile (DF=3), crushed, centrifuged at 10,000 rpm for 10 minutes, and the resultant supernatant was used as the sample solution. Briefly standards, QCs, and samples (25 μL) were mixed with 100 μL acetonitrile containing 0.5 μM Losartan (internal standard; IS) in low retention microcentrifuge tubes. The mixture was vortexed for 1 min and centrifuged at 10,000 rpm for 10 min at 5° C. 50 μL of supernatant was transferred to a 250 μL polypropylene autosampler vials and mixed with 50 μL water, and sealed with a Teflon cap. A volume of 3 μL was injected onto the ultra-performance liquid chromatography (UPLC) instrument for quantitative analysis using a temperature-controlled autosampler operating at 10° C.
Calibration curves for all test compounds were computed using the ratio of the peak area of analyte to the internal standard by using a quadratic regression with 1/× weighting. The parameters of each calibration curve were used to back-calculate concentrations and to obtain values for the QC samples and unknown samples by interpolation.

5-HT2A = 5-HT2A (Homo sapiens (Human), UniProt P28223); experiment: 5-HT2A [125I]DOI binding; conditions: read-out: 5-HT2A [125I]DOI Ki ± SEM
Chain of 5-HT2A (P28223 whole entry, species assumed): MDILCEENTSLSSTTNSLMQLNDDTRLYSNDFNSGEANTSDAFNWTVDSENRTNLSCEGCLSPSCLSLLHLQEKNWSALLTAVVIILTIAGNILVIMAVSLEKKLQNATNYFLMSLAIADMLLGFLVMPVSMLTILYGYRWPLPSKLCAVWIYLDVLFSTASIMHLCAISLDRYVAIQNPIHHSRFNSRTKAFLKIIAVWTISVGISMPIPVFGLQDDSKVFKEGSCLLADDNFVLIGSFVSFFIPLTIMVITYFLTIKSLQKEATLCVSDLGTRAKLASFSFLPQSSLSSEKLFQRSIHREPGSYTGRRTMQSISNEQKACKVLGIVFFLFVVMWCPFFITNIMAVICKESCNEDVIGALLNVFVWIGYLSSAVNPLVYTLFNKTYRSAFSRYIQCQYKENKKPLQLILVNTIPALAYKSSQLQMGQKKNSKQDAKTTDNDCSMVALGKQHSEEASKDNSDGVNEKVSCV

human dopamine D3R = human dopamine D3R (Homo sapiens (Human), UniProt P35462); experiment: D3R mitogenesis assay: stimulation or inhibition of quinpirole-stimulated mitogenesis in CHO cells; format: cell-based; conditions: for IC50: inhibition of quinpirole-stimulated mitogenesis
Chain of human dopamine D3R (P35462 whole entry): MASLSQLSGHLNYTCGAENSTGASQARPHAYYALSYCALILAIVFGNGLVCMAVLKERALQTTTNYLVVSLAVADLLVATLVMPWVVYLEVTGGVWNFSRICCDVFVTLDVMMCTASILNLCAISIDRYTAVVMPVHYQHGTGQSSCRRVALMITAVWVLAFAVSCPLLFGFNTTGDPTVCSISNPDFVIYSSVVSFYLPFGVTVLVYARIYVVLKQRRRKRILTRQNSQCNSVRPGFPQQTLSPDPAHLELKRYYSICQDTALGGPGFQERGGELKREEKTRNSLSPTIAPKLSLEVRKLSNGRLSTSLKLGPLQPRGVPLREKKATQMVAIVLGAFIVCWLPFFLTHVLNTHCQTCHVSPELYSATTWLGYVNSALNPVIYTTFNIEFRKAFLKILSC

human D2R = human D2R (Homo sapiens (Human), UniProt P14416); experiment: Radioligand competition binding, [3H]N-methylspiperone, HEK293 membranes expressing human D2R; conditions: read-out: D2R Ki ± SEM
Chain of human D2R (P14416 whole entry): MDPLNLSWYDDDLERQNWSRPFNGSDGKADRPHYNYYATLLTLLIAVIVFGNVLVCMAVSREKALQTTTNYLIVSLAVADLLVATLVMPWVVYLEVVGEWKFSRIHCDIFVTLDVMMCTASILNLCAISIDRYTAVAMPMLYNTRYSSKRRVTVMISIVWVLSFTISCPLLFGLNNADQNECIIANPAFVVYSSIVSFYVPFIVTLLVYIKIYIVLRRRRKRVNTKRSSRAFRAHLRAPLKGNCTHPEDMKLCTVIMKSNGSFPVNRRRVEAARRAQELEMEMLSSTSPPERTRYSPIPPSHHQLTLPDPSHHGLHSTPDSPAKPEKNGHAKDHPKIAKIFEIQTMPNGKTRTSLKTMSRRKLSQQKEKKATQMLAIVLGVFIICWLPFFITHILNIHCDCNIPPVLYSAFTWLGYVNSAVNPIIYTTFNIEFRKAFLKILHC
Procedure, shortened: (§1)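 HEK293 membranes (10 μg protein) incubated 1 h at room temperature in EBSS with 0.2 mM sodium metabisulfite, 0.4 nM [3H]N-methylspiperone and compound (10 μM to 10 pM, triplicate). Nonspecific binding defined with 10 μM butaclamol; GF/B filtration.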

human D3R = human D3R (Homo sapiens (Human), UniProt P35462); experiment: Radioligand competition binding, [3H]N-methylspiperone, HEK293 membranes expressing human D3R; conditions: for Ki: read-out: D3R Ki ± SEM; for D2/D3: ratio of Ki values
Chain of human D3R (P35462 whole entry): as the sequence (P35462 whole entry) above
Procedure, shortened: as §1

[3] = Phase I metabolic stability in rat liver microsomes; format: in vitro ADME; conditions: phase I metabolic stability in rat liver microsomes
Excerpt: Rat Liver Microsome Metabolic Stability: Test compounds including 3-F analogues (C4a, C4b, C5a, C5b) and 29, 19 as well as the R-, S-enantiomers of C4a, C5a, 29 and 19 were screened for phase I metabolic stability in rat liver microsomes.

human D4R = human D4R (Homo sapiens (Human), UniProt P21917); experiment: Radioligand competition binding, [3H]N-methylspiperone, HEK293 membranes expressing human D4R; conditions: Table 1A
Chain of human D4R (P21917 whole entry): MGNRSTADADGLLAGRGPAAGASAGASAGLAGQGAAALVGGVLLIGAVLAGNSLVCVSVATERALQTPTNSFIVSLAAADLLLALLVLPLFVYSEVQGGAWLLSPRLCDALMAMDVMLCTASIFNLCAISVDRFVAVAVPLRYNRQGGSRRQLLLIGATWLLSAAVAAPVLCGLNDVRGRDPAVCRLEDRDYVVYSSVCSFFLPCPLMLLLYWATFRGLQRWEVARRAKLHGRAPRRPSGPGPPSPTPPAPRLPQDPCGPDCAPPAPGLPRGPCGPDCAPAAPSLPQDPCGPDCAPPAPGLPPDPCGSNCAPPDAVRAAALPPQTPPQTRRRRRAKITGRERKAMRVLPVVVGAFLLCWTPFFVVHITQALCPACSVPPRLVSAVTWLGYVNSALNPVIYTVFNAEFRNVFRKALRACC
Protocol: Binding at dopamine D2-like receptors was determined using previously described methods. (Chen et al. “Tranylcypromine substituted cis-hydroxycyclobutylnaphthamides as potent and selective dopamine D(3) receptor antagonists.” J. Med. Chem. 2014, 57, 4962-4968) Membranes were prepared from HEK293 cells expressing human D2R, D3R or D4R, grown in a 50:50 mix of DMEM and Ham's F12 culture media, supplemented with 20 mM HEPES, 2 mM L-glutamine, 0.1 mM non-essential amino acids, 1× antibiotic/antimycotic, 10% heat-inactivated fetal bovine serum, and 200 μg/mL hygromycin (Life Technologies, Grand Island, N.Y.) and kept in an incubator at 37° C. and 5% CO2. Upon reaching 80-90% confluence, cells were harvested using pre-mixed Earle's Balanced Salt Solution (EBSS) with […] EDTA (Life Technologies) and centrifuged at 3000 rpm for 10 min at 21° C. The supernatant was removed and the pellet was resuspended in 10 mL hypotonic lysis buffer (5 mM MgCl2.6H2O, 5 mM Tris, pH 7.4 at 4° C.) and centrifuged at 20,000 rpm for 30 min at 4° C. The pellet was then resuspended in fresh EBSS buffer made from 8.7 g/L Earle's Balanced Salts without phenol red (US Biological, Salem, Mass.), 2.2 g/L sodium bicarbonate, pH to 7.4. A Bradford protein assay (Bio-Rad, Hercules, Calif.) was used to determine the protein concentration and membranes were diluted to 500 μg/mL and stored in a −80° C. freezer for later use.
Radioligand competition binding experiments were conducted using thawed membranes. Test compounds were freshly dissolved in 30% DMSO and 70% H2O to a stock concentration of 100 μM. To assist the solubilization of free-base compounds, 10 μl of glacial acetic acid was added along with the DMSO. Each test compound was then diluted into 13 half-log serial dilutions using 30% DMSO vehicle; final test concentrations ranged from 10 μM to 10 pM. Previously frozen membranes were diluted in fresh EBSS to a 100 μg/mL (for hD2R or hD3R) or 200 μg/mL (hD4R) stock for binding. Radioligand competition experiments were conducted in glass tubes containing 300 μl fresh EBSS buffer with 0.2 mM sodium metabisulfite, 50 μl of diluted test compound, 100 μl of membranes (10 μg total protein for hD2R or hD3R, 20 μg total protein for hD4R), and 50 μl of [^3H]N-methylspiperone (0.4 nM final concentration; Perkin Elmer). Nonspecific binding was determined using 10 μM butaclamol (Sigma-Aldrich, St. Louis, Mo.) and total binding was determined with 30% DMSO vehicle. All compound dilutions were tested in triplicate and the reaction incubated for one hour at room temperature. The reaction was terminated by filtration through Whatman GF/B filters, presoaked for one hour in 0.5% polyethylenimine, using a Brandel R48 filtering manifold (Brandel Instruments, Gaithersburg, Md.). The filters were washed 3 times with 3 mL of ice cold EBSS buffer and transferred to scintillation vials. 3 mL CytoScint liquid scintillation cocktail (MP Biomedicals, Solon, Ohio) was added and vials were counted using a Perkin Elmer Tri-Carb 2910 TR liquid scintillation counter (Waltham, Mass.). IC50 values for each compound were determined from dose-response curves and Ki values were calculated using the Cheng-Prusoff equation; these analyses were performed using GraphPad Prism version 5.00 for Windows (GraphPad Software, San Diego, Calif.). Reported Ki values were determined from least three independent experiments.

[4] = Table 3b, read-out: 5-HT1A [35S]GTPγS binding Agonist EC50 ± SEM
[5] = Table 1B, [3H]-N-methylspiperone competition, D2LR, 96-well plates
[6] = Table 1A, HEK 293 cells transfected with hD3R, [3H]N-methylspiperone

Chain of 5-HT2C (P28335 33-458, species assumed): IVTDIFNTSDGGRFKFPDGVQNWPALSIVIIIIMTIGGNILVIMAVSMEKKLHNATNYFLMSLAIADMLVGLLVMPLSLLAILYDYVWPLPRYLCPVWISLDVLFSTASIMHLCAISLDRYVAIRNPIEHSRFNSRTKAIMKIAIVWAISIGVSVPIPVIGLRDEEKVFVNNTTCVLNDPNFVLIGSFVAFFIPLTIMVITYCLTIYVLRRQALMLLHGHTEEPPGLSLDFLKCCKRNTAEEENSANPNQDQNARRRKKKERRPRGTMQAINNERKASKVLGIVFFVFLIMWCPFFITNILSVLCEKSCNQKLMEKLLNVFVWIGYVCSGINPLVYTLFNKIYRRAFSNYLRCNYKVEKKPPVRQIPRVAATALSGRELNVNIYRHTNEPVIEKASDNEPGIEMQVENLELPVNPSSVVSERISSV
T1 sequence (P08908 whole entry, species assumed): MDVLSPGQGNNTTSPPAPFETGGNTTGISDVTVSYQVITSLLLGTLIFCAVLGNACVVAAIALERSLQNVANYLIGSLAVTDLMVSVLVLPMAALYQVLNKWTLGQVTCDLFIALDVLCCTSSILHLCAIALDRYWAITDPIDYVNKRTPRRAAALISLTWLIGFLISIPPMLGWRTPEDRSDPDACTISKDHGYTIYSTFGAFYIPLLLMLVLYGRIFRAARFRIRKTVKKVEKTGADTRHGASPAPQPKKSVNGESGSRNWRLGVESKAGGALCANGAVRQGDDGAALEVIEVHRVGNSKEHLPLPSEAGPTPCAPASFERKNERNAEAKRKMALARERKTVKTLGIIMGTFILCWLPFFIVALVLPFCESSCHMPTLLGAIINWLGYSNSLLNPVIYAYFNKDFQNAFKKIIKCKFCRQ

With `CCc1cccc(N2CCN(C[C@H](O)CCNC(=O)c3cc4ccccc4[nH]3)CC2)c1Cl` [(R)-19, (R)-N-(4-(4-(2-chloro-3-ethylphenyl)piperazin-1-yl)-3-hydroxybutyl)-1H-indole-2-carboxamide] the Ki (5-HT2C; Table 3b) was 50 ± 13 nM, the Ki (5-HT1A [1]; Table 3b) was 248 ± 18 nM and the EC50 (5-HT1A [2]; [4]) was 1050 ± 260 nM. For the same compound, the AUC(0-t) (in vivo; male, Long-Evans) was 1.99 ± 0.279 µM·h, the Cmax (in vivo; male, Long-Evans) was 306 ± 113 nM and the “brain exposure (AUC0-t)” value (in vivo) was 21608 ± 1411 pmol·h/g. For the same compound, the brain penetration (in vivo) was “highly brain penetrable”, the Ki (5-HT2A; Table 3b) was 21.3 ± 6.6 nM and the “D3R functional efficacy (antagonist / partial agonist)” value (human dopamine D3R; quinpirole-stimulated mitogenesis in CHO cells) was “D3R antagonists”. It also gave a Ki (human D2R; [5]) of 68.1 ± 12.3 nM and a Ki (human D2R; Table 1C) of 75.8 ± 13.7 nM.

In the case of `CCc1cccc(N2CCN(CC(F)CCNC(=O)c3cc4ccccc4o3)CC2)c1Cl` (racemic) [Compound C5b, N-(4-(4-(2-chloro-3-ethylphenyl)piperazin-1-yl)-3-fluorobutyl)benzofuran-2-carboxamide], the Ki (human D3R; Table 1B, [3H]-N-methylspiperone competition, 96-well plates) is reported as 2.09 ± 0.484 nM, the D2/D3 (human D3R; Table 1B) is reported as 141 and the D2/D3 (human D3R; Table 1C) is reported as 134. It also gave a Ki (human D3R; Table 1C) of 2.45 ± 0.51 nM, a Ki (5-HT2C; Table 3b) of 464 ± 36 nM and a Ki (5-HT1A [1]; Table 3b) of 117 ± 14 nM. The EC50 (5-HT1A [2]; [4]) was 351 ± 84 nM, the “% intact/parent remaining” value [3] was 34% and the Ki (5-HT2A; Table 3b) was 336 ± 19 nM. For the same compound, the IC50 (human dopamine D3R; Table 2b, read-out: Antagonist IC50 ± S.E.M.) was 450 ± 160 nM, the Ki (human D2R; [5]) was 295 ± 30.1 nM and the Ki (human D2R; Table 1C) was 328 ± 33.5 nM.

For `CCc1cccc(N2CCN(CC(O)CCNC(=O)c3cc4ccccc4o3)CC2)c1Cl` (stereo not drawn) [Compound 21, N-(4-(4-(2-Chloro-3-ethylphenyl)piperazin-1-yl)-3-hydroxybutyl)benzofuran-2-carboxamide], the “D3R Ki ± SEM (nM)” value (human D3R; [6]) was “subnanomolar”, the Ki (human D3R; [6]) was 0.985 ± 0.105 nM and the D2/D3 (human D3R; Table 1A) was 166. It also gave a Ki (5-HT2C; Table 3a) of 89 ± 22 nM, a Ki (5-HT1A [1]; Table 3a) of 27.6 ± 5.3 nM and an EC50 (5-HT1A [2]; Table 3a, read-out: 5HT1A [35S]GTPγS binding Agonist EC50 ± SEM) of 118 ± 39 nM. It also gave a Ki (5-HT2A; Table 3a) of 3.2 ± 1.1 nM, an IC50 (human dopamine D3R; Table 2a, read-out: Antagonist IC50 ± SEM) of 230 ± 27 nM and an EC50 (human dopamine D3R; Table 2a, stimulation of mitogenesis, read-out: Agonist EC50 ± SEM) of 196 ± 64 nM. For the same compound, the Ki (human D2R; Table 1A, HEK 293 cells transfected with hD2LR, [3H]N-methylspiperone) was 164 ± 32.4 nM, the Ki (human D4R; [3H]N-methylspiperone, read-out: D4R Ki ± SEM) was 2380 ± 110 nM and the D4/D2 (human D4R; ratio of Ki values) was 15. It also gave a D4/D3 (human D4R; ratio of Ki values) of 2417.

— patent publication US11337971B2, “Dopamine D3 receptor selective antagonists/partial agonists and uses thereof” (THE UNITED STATES OF AMERICA, AS REPRESENTED BY THE …, priority 2018, dated 2022)
